Assay results reported in publication PMC3742231 (International Journal of Molecular Sciences, 2013).
pIC50: −log10 of the molar value. Where two headings read alike, the source gives them in different places.

How the values were obtained:
[1] = ref data on file, cited from earlier work
CYP3A4 = details: 20 μM, 48 h
Protocol: (§1) Freshly isolated human hepatocytes were obtained from the UK Human Tissue Bank (Leicester, UK).
(§2) Omeprazole (CYP1A2 inducer; 30 μM), phenobarbital (CYP2B6 inducer; 1 mM) and rifampicin (CYP2C9, CYP2C19, and CYP3A4 inducer; 50 μM) dissolved in dimethyl sulfoxide (0.5% v/v final), served as reference inducers.

CYP enzyme activities = details: cultured human hepatocytes
Protocol: as §1, §2

CYP2C9 = details: 0.2, 2 and 20 μM for 48 h
Protocol: as §1, §2

CYP2C19 = details: 0.2, 2 and 20 μM for 48 h
Protocol: as §1, §2

CYP2B6 = details: 20 μM, 48 h
Protocol: as §1, §2

CYP1A2 = details: 0.2, 2 and 20 μM for 48 h
Protocol: as §1, §2

CYP2A6 = molecular target: T1, CYP2A6 (Homo sapiens, UniProt P11509); assay: N-in-one CYP inhibition assay in human liver microsomes
T1 sequence (P11509 1-494): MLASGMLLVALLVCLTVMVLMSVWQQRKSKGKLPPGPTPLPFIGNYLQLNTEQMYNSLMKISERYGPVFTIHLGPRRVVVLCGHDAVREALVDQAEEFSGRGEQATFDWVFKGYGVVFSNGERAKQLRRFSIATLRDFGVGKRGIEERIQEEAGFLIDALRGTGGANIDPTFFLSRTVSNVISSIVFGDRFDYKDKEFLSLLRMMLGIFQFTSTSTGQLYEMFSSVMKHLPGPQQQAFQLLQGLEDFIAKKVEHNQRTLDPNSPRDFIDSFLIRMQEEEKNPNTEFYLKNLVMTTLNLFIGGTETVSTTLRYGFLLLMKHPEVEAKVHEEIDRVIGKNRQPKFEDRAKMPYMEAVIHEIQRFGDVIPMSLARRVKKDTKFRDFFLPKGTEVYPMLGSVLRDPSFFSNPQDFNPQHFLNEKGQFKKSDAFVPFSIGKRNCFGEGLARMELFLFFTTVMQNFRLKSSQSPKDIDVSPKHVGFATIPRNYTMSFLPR
Protocol: Human liver microsomes were prepared and pooled from ten human livers (HL20–24,28–32) as previously described. Human liver samples were obtained from the University Hospital of Oulu as surplus tissue from cadaver kidney transplant donors. The collection of surplus tissue was approved by the Ethics Committee of the Medical Faculty of the University of Oulu, Finland. All donors were Caucasians ranging in age from 21 to 62 years; four were female and six were male. Detailed information on each donor has been published previously. Protein concentrations were measured using the Bradford method.
In vitro inhibition of CYP isoforms was first assessed using the N-in-one approach (also called the cocktail approach). CYP-selective substrates and reactions are listed in Table 1; concentrations were roughly at or below the respective Michaelis-Menten coefficients. […] A Micromass LCT time-of-flight high-resolution mass spectrometer (Micromass Ltd., Manchester, UK) equipped with a Z-spray electrospray ionization source was used for the monitoring of CYP-selective reactions. Integrated mass chromatogram peak areas were normalized versus internal standards before comparing metabolites in different preparations. More details of the assay are available in previous publications.

OCCOc1ccc(/C(=C(/CCCl)c2ccccc2)c2ccccc2)cc1 [Ospemifene]
Change of serum concentrations of ospemifene ([1]; fluconazole pretreatment): increased | Change of serum concentrations of ospemifene ([1]; ketoconazole pretreatment): increased | Change of serum concentrations of ospemifene ([1]; omeprazole pretreatment): minimally changed | Change of serum concentrations of ospemifene ([1]; rifampicin pretreatment): reduced | Induction of CYP3A4 activity (CYP3A4): approximately two-fold | Induction of CYPs (CYP enzyme activities): ≤ 2.4 fold | Change in CYP2C9 activity (CYP2C9): did not cause any relevant changes | Change in CYP2C19 activity (CYP2C19): did not cause any relevant changes | Induction of CYP2B6 activity (CYP2B6): approximately two-fold | Change in CYP1A2 activity (CYP1A2): did not cause any relevant changes | pIC50 (CYP2A6): < 4.00
